From the supplement of paper PMC11061612

What was measured:
[1] = test system: C-4-I (Cervical Carcinoma); experiment: Bliss excess, mean over the matrix (fraction); higher = more synergy
Method in brief: (§1)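 After 24 hours at 37°C and 5% CO2 in 1536-well plates, cells in DMEM/F12 or RPMI plus 10% FBS received two-drug dose matrices for 72 hours. Viability came from CellTiter-Glo 2.0 luminescence and was scaled as inhibition, anchored at 0 by vehicle wells and at 1 by blank wells. Combination Emax is taken as the second-highest inhibition in the matrix, and Bliss excess as the observed combination effect less EA + EB − EA·EB, with EA and EB the single-agent effects.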

[2] = test system: HGC-27 (Gastric Carcinoma); experiment: as above
Method in brief: as §1

[3] = test system: HOP-62 (Lung Adenocarcinoma); experiment: as above
Method in brief: as §1

[4] = test system: HSC-4 (Oral Cavity Carcinoma); experiment: as above
Method in brief: as §1

[5] = test system: NEC8 (Other Solid Carcinomas); experiment: as above
Method in brief: as §1

[6] = test system: NUGC-3 (Gastric Carcinoma); experiment: as above
Method in brief: as §1

[7] = test system: OSC-20 (Oral Cavity Carcinoma); experiment: as above
Method in brief: as §1

[8] = test system: OVCAR-4 (Ovarian Carcinoma); experiment: as above
Method in brief: as §1

[9] = test system: SCC-15 (Oral Cavity Carcinoma); experiment: as above
Method in brief: as §1

[10] = test system: SU8686 (Pancreatic Carcinoma); experiment: as above
Method in brief: as §1

[11] = test system: ACHN (Kidney Carcinoma); experiment: combination Emax (second highest fraction inhibited in the dose matrix, 72 h); higher = more inhibition; extreme values may be limits of the assay
Method in brief: as §1

[12] = test system: Ca9-22 (Head and Neck Carcinoma); experiment: as above
Method in brief: as §1

[13] = test system: Caov-4 (Ovarian Carcinoma); experiment: as above
Method in brief: as §1

[14] = test system: EoL-1-cell (Acute Myeloid Leukemia); experiment: as above
Method in brief: as §1

[15] = test system: NB69 (Neuroblastoma); experiment: as above
Method in brief: as §1

[16] = test system: NCI-H727 (Other Solid Carcinomas); experiment: as above
Method in brief: as §1

[17] = test system: PANC-04-03 (Pancreatic Carcinoma); experiment: as above
Method in brief: as §1

[18] = test system: TGW (Neuroblastoma); experiment: as above
Method in brief: as §1

[19] = test system: UACC-62 (Melanoma); experiment: as above
Method in brief: as §1

[20] = test system: YH-13 (Glioblastoma); experiment: as above
Method in brief: as §1
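For Bliss excess, mean over the matrix in this document: after 72 h of two-drug dosing.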

Cc1nc(Nc2ncc(C(=O)Nc3c(C)cccc3Cl)s2)cc(N2CCN(CCO)CC2)n1 [Dasatinib] + CC(=O)Nc1cccc(-n2c(=O)n(C3CC3)c(=O)c3c(Nc4ccc(I)cc4F)n(C)c(=O)c(C)c32)c1 [Trametinib] (first compound max 2 µM, 7x7, partner max 1 µM)
Bliss excess [1]: 0.0328 | Bliss excess [2]: -0.0355 | Bliss excess [3]: -0.0824 | Bliss excess [4]: -0.0681 | Bliss excess [5]: -0.0277 | Bliss excess [6]: 0.0374 | Bliss excess [7]: -0.0148 | Bliss excess [8]: 0.0286 | Bliss excess [9]: -0.0213 | Bliss excess [10]: -0.0328 | combination Emax [11]: 0.749 | combination Emax [12]: 0.878 | combination Emax [13]: 0.743 | combination Emax [14]: 1 | combination Emax [15]: 1 | combination Emax [16]: 0.701 | combination Emax [17]: 0.781 | combination Emax [18]: 0.273 | combination Emax [19]: 0.888 | combination Emax [20]: 0.784

COc1cc2ncnc(Nc3ccc(F)c(Cl)c3)c2cc1OCCCN1CCOCC1 [Gefitinib] + CC(C)n1c(=O)n(C)c2cnc3cc(F)c(-c4ccc(OCCCN5CCCCC5)nc4)cc3c21 [AZD1390] (first compound max 10 µM, 7x7, partner max 0.3 µM)
Bliss excess [1]: -0.042 | Bliss excess [2]: -0.0261 | Bliss excess [3]: -0.0751 | Bliss excess [4]: -0.0847 | Bliss excess [5]: -0.0278 | Bliss excess [6]: -0.0515 | Bliss excess [7]: -0.0691 | Bliss excess [8]: -0.0561 | Bliss excess [9]: -0.0571 | Bliss excess [10]: -0.0378 | combination Emax [11]: 0.551 | combination Emax [12]: 0.625 | combination Emax [13]: 0.171 | combination Emax [14]: 0.571 | combination Emax [15]: 0.369 | combination Emax [16]: 0.157 | combination Emax [17]: 0.347 | combination Emax [18]: 0.0238 | combination Emax [19]: 0.248 | combination Emax [20]: 0.145

COc1cc2c(cc1OCCCCCOc1cc3c(cc1OC)C(=O)N1C=C(C)C[C@H]1C=N3)N=C[C@@H]1CC(C)=CN1C2=O [SG3199] + O=C(c1cc(Cc2n[nH]c(=O)c3ccccc23)ccc1F)N1CCN(C(=O)C2CC2)CC1 [Olaparib] (first compound max 0.001 µM, 7x7, partner max 10 µM)
Bliss excess [1]: -0.012 | Bliss excess [2]: 0.0358 | Bliss excess [3]: -0.0276 | Bliss excess [4]: -0.046 | Bliss excess [5]: 0.0376 | Bliss excess [6]: -0.0332 | Bliss excess [7]: -0.0319 | Bliss excess [8]: -0.0193 | Bliss excess [9]: -0.03 | Bliss excess [10]: -0.0388 | combination Emax [11]: 0.0891 | combination Emax [12]: 0.0924 | combination Emax [13]: 0.165 | combination Emax [14]: 0.319 | combination Emax [15]: 0.444 | combination Emax [16]: 0.24 | combination Emax [17]: 0.114 | combination Emax [18]: 0.166 | combination Emax [19]: 0.0735 | combination Emax [20]: 0.16

C[C@@H](c1ccc2nccn2c1)n1nnc2ncc(-c3cnn(C)c3)nc21 [Savolitinib] + CC1(C)CCC(CN2CCN(c3ccc(C(=O)NS(=O)(=O)c4ccc(NCC5CCOCC5)c([N+](=O)[O-])c4)c(Oc4cnc5[nH]ccc5c4)c3)CC2)=C(c2ccc(Cl)cc2)C1 [Venetoclax] (first compound max 1 µM, 7x7, partner max 1 µM)
Bliss excess [1]: -0.0585 | Bliss excess [2]: -0.0158 | Bliss excess [3]: -0.0939 | Bliss excess [4]: -0.0776 | Bliss excess [5]: -0.0236 | Bliss excess [6]: -0.0666 | Bliss excess [7]: -0.0521 | Bliss excess [8]: -0.0791 | Bliss excess [9]: -0.0613 | Bliss excess [10]: -0.0617 | combination Emax [11]: 0.127 | combination Emax [12]: 0.193 | combination Emax [13]: 0.12 | combination Emax [14]: 0.86 | combination Emax [15]: 0.372 | combination Emax [16]: 0.157 | combination Emax [17]: 0.202 | combination Emax [18]: 0.313 | combination Emax [19]: 0.24 | combination Emax [20]: 0.237

C[C@@H](c1ccc2nccn2c1)n1nnc2ncc(-c3cnn(C)c3)nc21 [Savolitinib] + Cc1c2c(nn1C)CSCc1cc(n(C)n1)CSc1cc(c3ccccc3c1)OCCCc1c(C(=O)O)n(C)c3c-2c(Cl)ccc13 [AZD5991] (first compound max 1 µM, 7x7, partner max 1 µM)
Bliss excess [1]: -0.111 | Bliss excess [2]: 0.0154 | Bliss excess [3]: -0.0754 | Bliss excess [4]: -0.0864 | Bliss excess [5]: -0.0093 | Bliss excess [6]: -0.0379 | Bliss excess [7]: -0.0239 | Bliss excess [8]: -0.0713 | Bliss excess [9]: -0.0222 | Bliss excess [10]: -0.0127 | combination Emax [11]: 0.174 | combination Emax [12]: 0.143 | combination Emax [13]: 0.421 | combination Emax [14]: 1 | combination Emax [15]: 0.74 | combination Emax [16]: 0.203 | combination Emax [17]: 0.165 | combination Emax [18]: 0.214 | combination Emax [19]: 0.545 | combination Emax [20]: 0.276
